One block for each molecule: values may come before it.
Key:
human GH = human GH (Homo sapiens, UniProt P01241); test: Slot blot of anti-huGH activity in serum from mice immunized with huGH; assay type: in vivo, mouse; settings: slot blot on immobilized human GH
[1] = Body weight of mice immunized with huGH; assay type: in vivo, mouse; settings: 20 male and 20 female mice immunized with huGH
Text: FIG. 13A provides a plot of body weight of mice immunized with human Growth Hormone (huGH) (20 male and 20 female) versus time.
This figure provides a plot of body weight of mice immunized with human Growth Hormone (huGH) (20 male and 20 female) versus time.

[2] = system: chemotherapy side effects; test: Short term immunization with human GH before cyclophosphamide treatment (body weight, complete blood count); assay type: in vivo, mouse; settings: cyclophosphamide i.p., 300 mg/kg, body weight and CBC 7-days after CP
Experimental: FIG. 14A provides plots of the body weight of mice with short term immunization (STI) with human GH (half-filled arrowheads) after cyclophosphamide treatment (cyclophosphamide (CP) i.p., 300 mg/kg, indicated by the solid arrowhead)(Sham means treated with buffer and no chemo);
FIG. 14B provides a histogram of the complete blood count (CBC) 7-days after CP treatment (Data are presented as percentage of pre-chemo value);
FIG. 14A provides plots of the body weight of mice with short term immunization (STI) with human GH (half-filled arrowheads) after cyclophosphamide treatment (cyclophosphamide (CP) i.p., 300 mg/kg, indicated by solid arrowheads). FIG. 14B provides a histogram of the complete blood count (CBC) 7-days after CP treatment (Data are presented as percentage of pre-chemo value).

[3] = system: pancreatic carcinoma cells; settings: Mol Cancer Ther May 2009 8:1095-1105; cited from earlier work
primary glial cells = test: 24 hour LDH release from primary glial cells treated with IGFBP1; assay type: cell-based
Experimental: FIG. 17 provides a plot of the 24 hour lactate dehydrogenase (LDH) release from the treatment of primary glial cells with the IGF-I inhibitor insulin-like growth factor-binding protein 1 (IGFBP1) and with insulin-like growth factor-binding protein 2 (IGFBP2). […] IGFBP1 is a strong IGF-I inhibitor. Other IGFBPs can even increase IGF-I signaling.

Sequence of human GH (P01241 27-217): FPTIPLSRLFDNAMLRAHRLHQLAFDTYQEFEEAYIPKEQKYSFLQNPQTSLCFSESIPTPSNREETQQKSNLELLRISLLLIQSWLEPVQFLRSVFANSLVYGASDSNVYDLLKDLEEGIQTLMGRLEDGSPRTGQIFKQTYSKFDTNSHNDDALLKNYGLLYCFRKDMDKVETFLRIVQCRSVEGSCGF

- immunized mice showing strong anti-huGH activity in serum (human GH): 34 out of 40
Molecule: human Growth Hormone [huGH]
- body weight of immunized mice [1]: Lower body weight
- effect against chemotherapy side effects [2]: protective effect against chemotherapy side effects

Molecule: AMG 479: a fully human anti-insulin-like growth factor receptor type I monoclonal antibody
- effect on growth and survival of pancreatic carcinoma cells [3]: inhibits the growth and survival of pancreatic carcinoma cells

B1: insulin-like growth factor-binding protein 1 (protein, UniProt P08833 26-259, looked up)
Insulin-like growth …: APWQCAPCSAEKLALCPPVSASCSEVTRSAGCGCCPMCALPLGAACGVATARCARGLSCRALPGEQQPLHALTRGQGACVQESDASAPHAAEAGSPESPESTEITEEELLDNFHLMAPSEEDHSILWDAISTYDGSKALHVTNIKKWKEPCRIELYRVVESLAKAQETSGEEISKFYLPNCNKNGFYHSRQCETSMDGEAGLCWCVYPWNGKRIPGSPEIRGDPNCQIYFNVQN
- protection against oxidative damage (LDH release) (primary glial cells): protects them against oxidative damage

From US20210246202A1, “TREATMENTS RELATED TO GH/IGF-1 AXIS INHIBITION” (UNIVERSITY OF SOUTHERN CALIFORNIA, priority 2010, published 2021)
